According to BindingDB's records for doi:10.1021/jm970200u (Northwestern University, 1997):
Where a SMILES comes first, the peptide text is derived from it. [ ]: non-standard residue; d: D form. The star is where a group is joined. dArg(NO2) = N=C(NCCC[C@@H](N)C(=O)O)N[N+](=O)[O-]; Arg(NO2) = N=C(NCCC[C@H](N)C(=O)O)N[N+](=O)[O-]; OBn = c1ccc(CO*)cc1

Test: Inhibition of Neuronal Nitric oxide synthase enzyme (nNOS)

Q: With NC(=NCCC[C@H](N)C(=O)N[C@@H](Cc1ccccc1)C(=O)O)N[N+](=O)[O-] as the compound, how does the Ki read?
A: 18 µM

Q: Which Ki does the source give for COC(=O)[C@H](Cc1ccccc1)NC(=O)[C@@H](N)CCCN=C(N)N[N+](=O)[O-] here?
A: 290 µM

Q: For COC(=O)[C@@H](CCCN=C(N)N[N+](=O)[O-])NC(=O)[C@H](N)Cc1ccccc1, which Ki is on record?
A: 400 µM

Q: For COC(=O)[C@@H](Cc1ccccc1)NC(=O)[C@@H](N)CCCN=C(N)N[N+](=O)[O-], which Ki is on record?
A: 92 µM

Q: Which Ki does the source give for NC(=NCCC[C@H](N)C(=O)N[C@@H](Cc1ccccc1)C(=O)OCc1ccccc1)N[N+](=O)[O-] here?
A: 55 µM

Q: With COC(=O)[C@H](CCCN=C(N)N[N+](=O)[O-])NC(=O)[C@@H](N)Cc1ccccc1 as the compound, how does the Ki read?
A: 370 µM

Q: Which Ki does the source give for COC(=O)[C@@H](CCCN=C(N)N[N+](=O)[O-])NC(=O)[C@@H](N)Cc1ccccc1 here?
A: 90 µM

Q: With NC(=NCCC[C@H](NC(=O)[C@@H](N)Cc1ccccc1)C(=O)OCc1ccccc1)N[N+](=O)[O-] (H-Phe-[Arg(NO2)]-OBn) as the compound, how does the Ki read?
A: 110 µM

Q: For N=C(NCCC[C@@H](NC(=O)[C@H](N)Cc1ccccc1)C(=O)O)N[N+](=O)[O-] [(2R)-2-{[(2R)-2-amino-3-phenylpropanoyl]amino}-5-{[(Z)-imino(nitroamino)methyl]amino}pentanoic acid] (H-[dF]-[dArg(NO2)]-OH), which Ki is on record?
A: 17 µM

Q: For COC(=O)[C@@H](Cc1ccccc1)NC(=O)[C@H](N)CCCNC(=N)N[N+](=O)[O-] [D-Nitroarginine,methoxy-D-phenylalanine,with 2M of hydrochloric acid], which Ki is on record?
A: 150 µM
